Assay results taken from patent US11390621B2, “Chiral indole compounds and their use” (ARIAGEN, INC., priority 2019, dated 2022).
Values joined by “and” are separate entries in the source; they are usually repeats but may differ in a detail not shown here. Equal entries are not always repeated. Where two headings read alike, the source gives them in different places.

Tests used:
rat hepatocytes = assay: Hepatocyte intrinsic clearance assay (metabolic stability), rat hepatocytes; format: in vitro ADME; conditions: for EH (hepatic extraction ratio): well stirred liver model, fu=1; for CLint lower than that of ARI-164 (fold): rat hepatocytes
Summary of the method: (§1)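 Cryopreserved pooled hepatocytes (1×10^6 cells/mL final) incubated with 1 μM compound at 37 °C, 5% CO2; samples at 0–120 min quenched in acetonitrile, analysed by LC-MS in duplicate. t1/2 and CLint from ln(% remaining) vs time slope; CLH via well-stirred liver model (fu=1) and EH derived from it.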

[1] = as above; format: in vitro ADME; conditions: rat, cryopreserved hepatocytes, Rat Hepatocytes, 1 μM test compound
Summary of the method: as §1

[2] = Hepatocyte intrinsic clearance assay (metabolic stability), human hepatocytes; format: in vitro ADME; conditions: male, human, cryopreserved pooled hepatocytes, Human Hepatocytes, 1 μM test compound
Summary of the method: as §1

human hepatocytes = assay: as above; format: in vitro ADME; conditions: for EH (hepatic extraction ratio): well stirred liver model, fu=1
Summary of the method: as §1

[3] = CYP profiling: turnover in human liver microsomes, 30 min, no inhibitor; format: in vitro ADME; design: % Compound Metabolized at 30 min, No Inhibitor: concentration or dose not given beside the values; conditions: HLMs
Method: (§2) In order to investigate the contributions of CYP1A2 and CYP3A4 to the metabolism of the compounds of the present disclosure, human liver microsomes were incubated with the test compounds for 30 minutes in the presence of selective chemical inhibitors furafylline (1A2) and ketoconazole (3A4).

[4] = In vivo pharmacokinetic studies in rats; design: species or system SD rats; conditions: rats; for AUC / AUC(0-inf) / Cmax at 1 day / MRT inf at 1 day / MRT last at 1 day / half-life at 1 day / AUC(0-t) / Tmax at 1 day / Cmax at 5 day / MRT last at 5 day / Tmax at 5 day / MRT inf at 5 days / half-life at 5 days: rat, plasma, po, 10 mg/kg; for AUC(0-inf) / Cmax at 1 day / MRT inf at 1 day / MRT last at 1 day / half-life at 1 day / AUC(0-t) / Tmax at 1 day / Cmax at 5 day / MRT last at 5 day / Tmax at 5 day / AUCinf / AUClast / Cmax / MRTinf / MRTlast / T1/2 / Tmax / MRT inf at 5 days / half-life at 5 days: repeat 10 mg/kg PO QD; for AUC(0-t): read-out: AUClast; for Tmax at 1 day: read-out: Tmax; for behaviour of exposure after 5 days of repeat dosing (in words): 10 mg/kg PO QD for 5 days
Summary of the method: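 Mice and rats (N=3/group) dosed IV at 2 mg/kg in DMSO or PO at 10, 30 or 40 mg/kg in PEG400/Tween 80 50/50; PEG400/Kolliphor HS15/oleic acid 45/45/10 used for one repeat-dose rat study. Repeat dosing in rats was PO 10 mg/kg QD for 5 days. Plasma sampled pre-dose to 24 h post-dose, measured by HPLC.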

CYP3A4 = molecular target: T1, CYP3A4 (Homo sapiens, UniProt P08684); assay: CYP profiling: human liver microsomes with CYP3A4 inhibitor ketoconazole; format: in vitro ADME; design: % Compound Metabolized at 30 min, CYP3A4 Inhibitor: concentration or dose not given beside the values; conditions: HLMs; for % Inhibition Relative to Negative Control, 3A4: 30 min
T1 construct: from tissue; host or cells: human liver microsomes
T1 sequence (P08684 whole entry): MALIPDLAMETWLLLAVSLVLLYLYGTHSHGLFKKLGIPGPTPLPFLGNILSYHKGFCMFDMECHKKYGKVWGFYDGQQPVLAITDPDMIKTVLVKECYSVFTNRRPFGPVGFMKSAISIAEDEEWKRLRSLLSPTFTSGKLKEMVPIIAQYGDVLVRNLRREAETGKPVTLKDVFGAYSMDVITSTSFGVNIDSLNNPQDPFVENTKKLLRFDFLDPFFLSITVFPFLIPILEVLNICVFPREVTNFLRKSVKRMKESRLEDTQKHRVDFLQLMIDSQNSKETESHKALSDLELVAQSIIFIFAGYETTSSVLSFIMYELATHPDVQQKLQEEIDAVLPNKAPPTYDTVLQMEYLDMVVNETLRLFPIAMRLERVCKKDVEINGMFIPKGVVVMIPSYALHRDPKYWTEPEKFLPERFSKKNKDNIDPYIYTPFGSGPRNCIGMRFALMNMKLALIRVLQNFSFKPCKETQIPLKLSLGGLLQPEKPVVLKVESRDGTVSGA
Method: as §2

[5] = Sprague-Dawley (SD), Day 1, Mean of 3 animals
[6] = Sprague-Dawley, Day 1, individual animal
[7] = Sprague-Dawley, Day 5, individual animal

SMILES: CC[C@H](N)c1csc(C(=O)c2c[nH]c3cc(F)ccc23)n1 [ARI-186, (S)-(4-(1-aminopropyl)thiazol-2-yl)(6-fluoro-1H-indol-3-yl)methanone]
- CLint (rat hepatocytes; Rat Hepatocytes, 1 μM test compound): 4.127 μL/min/10^6 cells
- EH (hepatic extraction ratio) (rat hepatocytes; Rat Hepatocytes): 21.6%
- CLint lower than that of ARI-164 (fold) (rat hepatocytes): 1.8 ×
- half-life at 1 μM [1]: 2.8 h
- hepatocyte CLint at 1 μM [1]: 4.1 µL/min/1e6 cells
- half-life at 1 μM [2]: 7.9 h
- hepatocyte CLint at 1 μM [2]: 1.5 µL/min/1e6 cells
- CLint (human hepatocytes; Human Hepatocytes, 1 μM test compound): 1.453 μL/min/10^6 cells
- EH (hepatic extraction ratio) (human hepatocytes; Human Hepatocytes): 8.7%
- CLint lower than that of ARI-164 (fold improvement) (human hepatocytes; human hepatocytes): 10.8 ×
- % Compound Metabolized at 30 min, No Inhibitor [3]: 13%
- metabolic turnover (in words) [3]: very low turnover
- AUC ([4]; SD, repeat oral dosing 10 mg/kg QD, read-out: AUC on day 1): 5940 ng·h/mL
- AUC ([4]; SD, repeat oral dosing 10 mg/kg QD, read-out: AUC on day 5): 29100 ng·h/mL
- AUC(0-inf) [4, 5]: 6480 ng·h/mL
- Cmax at 1 day [4, 5]: 399 ng/mL
- MRT inf at 1 day [4, 5]: 10.1 h
- MRT last at 1 day [4, 5]: 8.06 h
- half-life at 1 day [4, 5]: 6.04 h
- AUC(0-t) [4, 5]: 5940 ng·h/mL
- Tmax at 1 day [4, 5]: 6.67 h
- AUC(0-t) ([4]; Sprague-Dawley (SD), Day 5, individual animal): 33600 ng·h/mL
- AUC(0-inf) [4, 6]: 6920 ng·h/mL
- Cmax at 1 day [4, 6]: 397 ng/mL
- MRT inf at 1 day [4, 6]: 10.5 h
- MRT last at 1 day [4, 6]: 8.14 h
- half-life at 1 day [4, 6]: 6.44 h
- AUC(0-t) [4, 6]: 6260 ng·h/mL
- Tmax at 1 day [4, 6]: 8 h
- Cmax at 5 day ([4]; Sprague-Dawley, Day 5, Mean): 1580 ng/mL
- MRT last at 5 day ([4]; Sprague-Dawley, Day 5, Mean): 11.5 h
- Tmax at 5 day ([4]; Sprague-Dawley, Day 5, Mean): 4.67 h
- AUC(0-t) ([4]; Sprague-Dawley, Day 5, Mean): 29100 ng·h/mL
- Cmax at 5 day [4, 7]: 1610 ng/mL
- MRT last at 5 day [4, 7]: 11.6 h
- behaviour of exposure after 5 days of repeat dosing (in words) [4]: accumulation towards steady state
- AUCinf ([4]; Day 1, individual animal): 6000 ng·h/mL and 6510 ng·h/mL
- AUClast ([4]; Day 1, individual animal): 5400 ng·h/mL and 6150 ng·h/mL
- Cmax ([4]; Day 1, individual animal): 359 ng/mL and 441 ng/mL
- MRTinf ([4]; Day 1, individual animal): 10.9 h and 8.93 h
- MRTlast ([4]; Day 1, individual animal): 8.40 h and 7.63 h
- T1/2 ([4]; Day 1, individual animal): 6.45 h and 5.22 h
- Tmax ([4]; Day 1, individual animal): 4 h
- AUClast ([4]; Day 5, individual animal): 24600 ng·h/mL
- Cmax ([4]; Day 5, individual animal): 1310 ng/mL and 1810 ng/mL
- MRTlast ([4]; Day 5, individual animal): 11.4 h
- Tmax ([4]; Day 5, individual animal): 4 h
- accumulation (AUC day 5 vs day 1) ([4]; repeat oral dosing 10 mg/kg QD): 4.9 ×
- % Compound Metabolized at 30 min, CYP3A4 Inhibitor (CYP3A4): 12%
- % Inhibition Relative to Negative Control, 3A4 (CYP3A4): 8%

SMILES: N[C@@H](c1csc(C(=O)c2c[nH]c3cc(F)ccc23)n1)C(F)(F)F [ARI-224]
- EH (hepatic extraction ratio) (rat hepatocytes; Rat Hepatocytes): 29.0%
- CLint lower than that of ARI-164 (fold) (rat hepatocytes): slightly lower
- half-life at 1 μM [1]: 1.9 h
- hepatocyte CLint at 1 μM [1]: 6.12 µL/min/1e6 cells
- half-life at 1 μM [2]: 3 h
- hepatocyte CLint at 1 μM [2]: 3.85 µL/min/1e6 cells
- EH (hepatic extraction ratio) (human hepatocytes; Human Hepatocytes): 15.8%
- % Compound Metabolized at 30 min, No Inhibitor [3]: 9%
- metabolic turnover (in words) [3]: low turnover
- AUC(0-inf) ([4]; SD, Day 5, Mean): 8.24 ng·h/mL
- MRT inf at 5 days ([4]; SD, Day 5, Mean): 1.95 h
- half-life at 5 days ([4]; SD, Day 5, Mean): 1.28 h
- AUC(0-inf) ([4]; SD, Day 5, individual animal): 8.24 ng·h/mL
- MRT inf at 5 days ([4]; SD, Day 5, individual animal): 1.95 h
- half-life at 5 days ([4]; SD, Day 5, individual animal): 1.28 h
- AUC(0-inf) [4, 5]: 2680 ng·h/mL
- Cmax at 1 day [4, 5]: 792 ng/mL
- MRT inf at 1 day [4, 5]: 2.79 h
- MRT last at 1 day [4, 5]: 2.48 h
- half-life at 1 day [4, 5]: 1.55 h
- AUC(0-t) [4, 5]: 2600 ng·h/mL
- Tmax at 1 day [4, 5]: 1.33 h
- Cmax at 1 day [4, 6]: 699 ng/mL
- MRT inf at 1 day [4, 6]: 3.23 h
- MRT last at 1 day [4, 6]: 2.66 h
- half-life at 1 day [4, 6]: 2.05 h
- Tmax at 1 day [4, 6]: 1 h
- Cmax at 5 day ([4]; Sprague-Dawley, Day 5, Mean): 5.96 ng/mL
- MRT last at 5 day ([4]; Sprague-Dawley, Day 5, Mean): 4.56 h
- Tmax at 5 day ([4]; Sprague-Dawley, Day 5, Mean): 0.333 h
- AUC(0-t) ([4]; Sprague-Dawley, Day 5, Mean): 11.4 ng·h/mL
- Tmax at 5 day [4, 7]: 0.5 h
- behaviour of exposure after 5 days of repeat dosing (in words) [4]: increased elimination
- AUCinf ([4]; Day 1, individual animal): 2140 ng·h/mL and 4070 ng·h/mL and 1840 ng·h/mL
- AUClast ([4]; Day 1, individual animal): 1990 ng·h/mL and 4030 ng·h/mL and 1770 ng·h/mL
- Cmax ([4]; Day 1, individual animal): 1090 ng/mL and 587 ng/mL
- MRTinf ([4]; Day 1, individual animal): 2.48 h and 2.66 h
- MRTlast ([4]; Day 1, individual animal): 2.42 h and 2.36 h
- T1/2 ([4]; Day 1, individual animal): 1.04 h and 1.57 h
- Tmax ([4]; Day 1, individual animal): 2 h
- AUClast ([4]; Day 5, individual animal): 11.9 ng·h/mL and 14.9 ng·h/mL and 7.28 ng·h/mL
- Cmax ([4]; Day 5, individual animal): 5.53 ng/mL and 8.36 ng/mL and 3.98 ng/mL
- MRTlast ([4]; Day 5, individual animal): 3.29 h and 8.95 h and 1.44 h
- Tmax ([4]; Day 5, individual animal): 0.25 h
- % Compound Metabolized at 30 min, CYP3A4 Inhibitor (CYP3A4): 8%
- % Inhibition Relative to Negative Control, 3A4 (CYP3A4): 11%
